Assay results from PubChem BioAssay AID1963854 (Molecular Pharmacology Branch, DTP, NCI, 2024).

Test system: 186277-243-T-J2-PDC complex spheroid viability
Assay: Anticancer human tumor 186277-243-T-J2-PDC patient-derived colon adenocarcinoma cell line growth inhibition [POLQ]
Conditions: for IC50: curve of first compound; for viability, T/C: stronger effect = lower value
Method in brief: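 Patient-derived tumour cells were co-cultured with HUVEC and mesenchymal stem cells as multicellular spheroids at 37 °C. They were treated with POLQ inhibitors (novobiocin, ART-558, RP6685) alone or combined with other agents. Top concentrations were at or near clinical Cmax (otherwise 10 microM; SN-38 at 1 microM), decreasing in half-log steps.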

[1] = second compound 0.0316 µM, first compound 0.0316 µM
[2] = second compound 0.0316 µM, first compound 0.1 µM
[3] = second compound 0.0316 µM, first compound 0.316 µM
[4] = second compound 0.0316 µM, first compound 1 µM
[5] = second compound 0.0316 µM, first compound 3.16 µM
[6] = second compound 0.0316 µM, first compound 10 µM
[7] = second compound 0.1 µM, first compound 0.0316 µM
[8] = second compound 0.1 µM, first compound 0.1 µM
[9] = second compound 0.1 µM, first compound 0.316 µM
[10] = second compound 0.1 µM, first compound 1 µM
[11] = second compound 0.1 µM, first compound 3.16 µM
[12] = second compound 0.1 µM, first compound 10 µM
[13] = second compound 0.316 µM, first compound 0.0316 µM
[14] = second compound 0.316 µM, first compound 0.1 µM
[15] = second compound 0.316 µM, first compound 0.316 µM
[16] = second compound 0.316 µM, first compound 1 µM
[17] = second compound 0.316 µM, first compound 3.16 µM
[18] = second compound 0.316 µM, first compound 10 µM
[19] = second compound 1 µM, first compound 0.0316 µM
[20] = second compound 1 µM, first compound 0.1 µM
[21] = second compound 1 µM, first compound 0.316 µM
[22] = second compound 1 µM, first compound 1 µM
[23] = second compound 1 µM, first compound 3.16 µM
[24] = second compound 1 µM, first compound 10 µM
[25] = second compound 3.16 µM, first compound 0.0316 µM
[26] = second compound 3.16 µM, first compound 0.1 µM
[27] = second compound 3.16 µM, first compound 0.316 µM
[28] = second compound 3.16 µM, first compound 1 µM
[29] = second compound 3.16 µM, first compound 3.16 µM
[30] = second compound 3.16 µM, first compound 10 µM
[31] = second compound 10 µM, first compound 0.0316 µM
[32] = second compound 10 µM, first compound 0.1 µM
[33] = second compound 10 µM, first compound 0.316 µM
[34] = second compound 10 µM, first compound 1 µM
[35] = second compound 10 µM, first compound 3.16 µM
[36] = second compound 10 µM, first compound 10 µM
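Further: spheroids exposed to compounds for seven days.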
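Wherever viability, T/C is given: 100% = DMSO vehicle control viability.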

Structure (SMILES): CC1COCCN1c1cc(C2(S(C)(=N)=O)CC2)nc(-c2ccnc3[nH]ccc23)n1 (stereo not given) + Nc1ccc(C#CCN(C(=O)Cc2ncc(C(F)(F)F)cc2C(F)(F)F)c2ccc(F)cc2)nn1
- IC50 (second compound 0.0316 µM): 1.81 µM
- IC50 (second compound 0.1 µM): 1.79 µM
- IC50 (second compound 0.316 µM): 1.89 µM
- IC50 (second compound 1 µM): 1.78 µM
- IC50 (second compound 3.16 µM): 1.66 µM
- IC50 (second compound 10 µM): 1.64 µM
- viability, T/C [1]: 103%
- viability, T/C [2]: 96.5%
- viability, T/C [3]: 102%
- viability, T/C [4]: 88.1%
- viability, T/C [5]: 14.1%
- viability, T/C [6]: 9.47%
- viability, T/C [7]: 97.2%
- viability, T/C [8]: 90.5%
- viability, T/C [9]: 93%
- viability, T/C [10]: 85.9%
- viability, T/C [11]: 14.8%
- viability, T/C [12]: 10.2%
- viability, T/C [13]: 109%
- viability, T/C [14]: 102%
- viability, T/C [15]: 110%
- viability, T/C [16]: 93.6%
- viability, T/C [17]: 14.8%
- viability, T/C [18]: 10.7%
- viability, T/C [19]: 99.4%
- viability, T/C [20]: 105%
- viability, T/C [21]: 98.8%
- viability, T/C [22]: 84.8%
- viability, T/C [23]: 15.2%
- viability, T/C [24]: 8.83%
- viability, T/C [25]: 109%
- viability, T/C [26]: 104%
- viability, T/C [27]: 118%
- viability, T/C [28]: 78.7%
- viability, T/C [29]: 15%
- viability, T/C [30]: 8.91%
- viability, T/C [31]: 105%
- viability, T/C [32]: 94.5%
- viability, T/C [33]: 97.6%
- viability, T/C [34]: 77.1%
- viability, T/C [35]: 14.3%
- viability, T/C [36]: 8.26%

Structure (SMILES): CCc1cc2c(N3CCc4c(cc(Cn5ccnc5)cc4-c4cn(C)nc4C(F)(F)F)C3=O)ccnc2c(OC)n1 + Nc1ccc(C#CCN(C(=O)Cc2ncc(C(F)(F)F)cc2C(F)(F)F)c2ccc(F)cc2)nn1
- IC50 (second compound 0.0316 µM): > 10 µM
- IC50 (second compound 0.1 µM): > 10 µM
- IC50 (second compound 0.316 µM): > 10 µM
- IC50 (second compound 1 µM): > 10 µM
- IC50 (second compound 3.16 µM): > 10 µM
- IC50 (second compound 10 µM): > 10 µM
- viability, T/C [1]: 94.6%
- viability, T/C [2]: 95.7%
- viability, T/C [3]: 91.6%
- viability, T/C [4]: 85.6%
- viability, T/C [5]: 96.3%
- viability, T/C [6]: 111%
- viability, T/C [7]: 90.2%
- viability, T/C [8]: 92.2%
- viability, T/C [9]: 100%
- viability, T/C [10]: 97.8%
- viability, T/C [11]: 119%
- viability, T/C [12]: 95.5%
- viability, T/C [13]: 88.8%
- viability, T/C [14]: 111%
- viability, T/C [15]: 90.9%
- viability, T/C [16]: 108%
- viability, T/C [17]: 104%
- viability, T/C [18]: 114%
- viability, T/C [19]: 103%
- viability, T/C [20]: 102%
- viability, T/C [21]: 93.1%
- viability, T/C [22]: 94.6%
- viability, T/C [23]: 110%
- viability, T/C [24]: 105%
- viability, T/C [25]: 109%
- viability, T/C [26]: 98.7%
- viability, T/C [27]: 112%
- viability, T/C [28]: 100%
- viability, T/C [29]: 106%
- viability, T/C [30]: 94.2%
- viability, T/C [31]: 117%
- viability, T/C [32]: 99%
- viability, T/C [33]: 100%
- viability, T/C [34]: 117%
- viability, T/C [35]: 121%
- viability, T/C [36]: 90.9%

Structure (SMILES): CCCS(=O)(=O)Nc1ccc(F)c(C(=O)c2c[nH]c3ncc(-c4ccc(Cl)cc4)cc23)c1F + Nc1ccc(C#CCN(C(=O)Cc2ncc(C(F)(F)F)cc2C(F)(F)F)c2ccc(F)cc2)nn1
- IC50 (second compound 0.0316 µM): > 10 µM
- IC50 (second compound 0.1 µM): > 10 µM
- IC50 (second compound 0.316 µM): > 10 µM
- IC50 (second compound 1 µM): > 10 µM
- IC50 (second compound 3.16 µM): > 10 µM
- IC50 (second compound 10 µM): 9.97 µM
- viability, T/C [1]: 89.6%
- viability, T/C [2]: 100%
- viability, T/C [3]: 88.9%
- viability, T/C [4]: 79.8%
- viability, T/C [5]: 113%
- viability, T/C [6]: 66.3%
- viability, T/C [7]: 91.5%
- viability, T/C [8]: 87.7%
- viability, T/C [9]: 86.8%
- viability, T/C [10]: 82.9%
- viability, T/C [11]: 91.5%
- viability, T/C [12]: 60.9%
- viability, T/C [13]: 89.7%
- viability, T/C [14]: 90.5%
- viability, T/C [15]: 89%
- viability, T/C [16]: 94.3%
- viability, T/C [17]: 85.8%
- viability, T/C [18]: 57.8%
- viability, T/C [19]: 100%
- viability, T/C [20]: 91.2%
- viability, T/C [21]: 109%
- viability, T/C [22]: 94.4%
- viability, T/C [23]: 87.8%
- viability, T/C [24]: 62.8%
- viability, T/C [25]: 120%
- viability, T/C [26]: 89.5%
- viability, T/C [27]: 85%
- viability, T/C [28]: 93.4%
- viability, T/C [29]: 88%
- viability, T/C [30]: 63.6%
- viability, T/C [31]: 108%
- viability, T/C [32]: 97.7%
- viability, T/C [33]: 85.7%
- viability, T/C [34]: 95.9%
- viability, T/C [35]: 85.1%
- viability, T/C [36]: 48.8%

Structure (SMILES): CCc1cc2c(N3CCc4c(cc(Cn5ccnc5)cc4-c4cn(C)nc4C(F)(F)F)C3=O)cc(C)nc2c(OC)n1 + COC1C(OC(N)=O)C(O)C(Oc2ccc3c(O)c(NC(=O)c4ccc(O)c(CC=C(C)C)c4)c(=O)oc3c2C)OC1(C)C
- IC50 (second compound 0.0316 µM): > 10 µM
- IC50 (second compound 0.1 µM): > 10 µM
- IC50 (second compound 0.316 µM): > 10 µM
- IC50 (second compound 1 µM): > 10 µM
- IC50 (second compound 3.16 µM): > 10 µM
- IC50 (second compound 10 µM): > 10 µM
- viability, T/C [1]: 100%
- viability, T/C [2]: 91.7%
- viability, T/C [3]: 101%
- viability, T/C [4]: 80.4%
- viability, T/C [5]: 80.5%
- viability, T/C [6]: 77.4%
- viability, T/C [7]: 88.1%
- viability, T/C [8]: 92.2%
- viability, T/C [9]: 92.7%
- viability, T/C [10]: 96.9%
- viability, T/C [11]: 100%
- viability, T/C [12]: 80.4%
- viability, T/C [13]: 95.6%
- viability, T/C [14]: 101%
- viability, T/C [15]: 101%
- viability, T/C [16]: 93.5%
- viability, T/C [17]: 85.3%
- viability, T/C [18]: 84.4%
- viability, T/C [19]: 99.1%
- viability, T/C [20]: 101%
- viability, T/C [21]: 111%
- viability, T/C [22]: 104%
- viability, T/C [23]: 104%
- viability, T/C [24]: 73.7%
- viability, T/C [25]: 93.4%
- viability, T/C [26]: 96.6%
- viability, T/C [27]: 86.3%
- viability, T/C [28]: 86.2%
- viability, T/C [29]: 98.9%
- viability, T/C [30]: 72.4%
- viability, T/C [31]: 96.5%
- viability, T/C [32]: 102%
- viability, T/C [33]: 104%
- viability, T/C [34]: 107%
- viability, T/C [35]: 99.2%
- viability, T/C [36]: 86.1%

Structure (SMILES): COc1ccc([C@@H](O)c2cc(-c3ncnc4cc(N5CCOCC5)ccc34)c(F)cc2Cl)nn1 + Cc1cccc(N(C)C(=O)C2C(O)CCN2c2nc(C)cc(C(F)(F)F)c2C#N)c1
- IC50 (second compound 0.0316 µM): 5.9 µM
- IC50 (second compound 0.1 µM): 5.56 µM
- IC50 (second compound 0.316 µM): 6.69 µM
- IC50 (second compound 1 µM): 6.39 µM
- IC50 (second compound 3.16 µM): 5.81 µM
- IC50 (second compound 10 µM): 6.17 µM
- viability, T/C [1]: 102%
- viability, T/C [2]: 105%
- viability, T/C [3]: 94.9%
- viability, T/C [4]: 110%
- viability, T/C [5]: 74.3%
- viability, T/C [6]: 29.4%
- viability, T/C [7]: 101%
- viability, T/C [8]: 112%
- viability, T/C [9]: 109%
- viability, T/C [10]: 97.9%
- viability, T/C [11]: 71.3%
- viability, T/C [12]: 28.1%
- viability, T/C [13]: 90.4%
- viability, T/C [14]: 105%
- viability, T/C [15]: 101%
- viability, T/C [16]: 104%
- viability, T/C [17]: 86.2%
- viability, T/C [18]: 30.4%
- viability, T/C [19]: 100%
- viability, T/C [20]: 107%
- viability, T/C [21]: 97%
- viability, T/C [22]: 98.1%
- viability, T/C [23]: 81%
- viability, T/C [24]: 30%
- viability, T/C [25]: 107%
- viability, T/C [26]: 114%
- viability, T/C [27]: 109%
- viability, T/C [28]: 99.4%
- viability, T/C [29]: 76.9%
- viability, T/C [30]: 26.2%
- viability, T/C [31]: 101%
- viability, T/C [32]: 102%
- viability, T/C [33]: 125%
- viability, T/C [34]: 109%
- viability, T/C [35]: 84.3%
- viability, T/C [36]: 25.1%
